# Source: ChEMBL document CHEMBL1201862, “PubChem BioAssay data set” (2004)
#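 Following 48 hours of exposure in 96-well plates, responses at five concentrations were used to interpolate endpoints linearly. GI50 = concentration required for 50% inhibition of growth.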 Active and inactive are the calls of the source. No stated cut-off is given here; in the data, active = GI50 up to about 1.1 µM and inactive = higher.
# How the values were obtained:
# Test in all cases: inhibition of tumour cell growth, NCI panel, 48 h
# [1] = tested on: A498
# [2] = tested on: U-251
# [3] = tested on: SK-MEL-2
# [4] = tested on: Malme-3M
# [5] = tested on: HCT-116
# [6] = tested on: UACC-257
# [7] = tested on: SNB-19
# [8] = tested on: KM12
# [9] = tested on: NCI-H23
# [10] = tested on: MDA-MB-231
# [11] = tested on: PC-3
# [12] = tested on: 786-0
# [13] = tested on: OVCAR-8
# [14] = tested on: IGROV-1
# [15] = tested on: BT-549
# [16] = tested on: MDA-MB-435
# [17] = tested on: HCC 2998
# [18] = tested on: SF-268
# [19] = tested on: SF-295
# [20] = tested on: OVCAR-5
# [21] = tested on: SK-OV-3
# [22] = tested on: A549
# [23] = tested on: HOP-62
# [24] = tested on: OVCAR-3
# [25] = tested on: CCRF-CEM
# [26] = tested on: SNB-75
# [27] = tested on: UACC-62
# [28] = tested on: SW-620
# [29] = tested on: TK-10
# [30] = tested on: CAKI-1
# [31] = tested on: MOLT-4
# [32] = tested on: NCI-H522
# [33] = tested on: ACHN
# [34] = tested on: UO-31
# [35] = tested on: SN12C
# [36] = tested on: COLO 205
# [37] = tested on: K562
# [38] = tested on: HOP-92
# [39] = tested on: NCI-H226
# [40] = tested on: HCT-15
# [41] = tested on: SR
# [42] = tested on: NCI/ADR-RES
# [43] = tested on: RPMI-8226
# [44] = tested on: HL-60
# [45] = tested on: SK-MEL-28
# [46] = tested on: SK-MEL-5
# [47] = tested on: HT-29
# [48] = tested on: LOX IMVI
# [49] = tested on: MCF7
# [50] = tested on: OVCAR-4
# [51] = tested on: MDA-N
# [52] = tested on: NCI-H460
# [53] = tested on: SF-539
# [54] = tested on: T47D
# [55] = tested on: EKVX
# [56] = tested on: DU-145
# [57] = tested on: M14
# [58] = tested on: Hs-578T
# [59] = tested on: RXF 393
smiles,measurement,setting,value
[N-]=[N+]=NCC1OCC(O)C(OCc2ccccc2)C1OCc1ccccc1 (centres undefined),GI50,[1],> 100 µM (inactive)
same,GI50,[2],> 100 µM (inactive)
same,GI50,[3],39.4 µM (inactive)
same,GI50,[4],> 10 µM (inactive)
same,GI50,[5],95.9 µM (inactive)
same,GI50,[6],66.8 µM (inactive)
same,GI50,[7],> 100 µM (inactive)
same,GI50,[8],41 µM (inactive)
same,GI50,[9],> 100 µM (inactive)
same,GI50,[10],> 100 µM (inactive)
same,GI50,[11],73.1 µM (inactive)
same,GI50,[12],81.5 µM (inactive)
same,GI50,[13],> 100 µM (inactive)
same,GI50,[14],79.3 µM (inactive)
same,GI50,[15],28.9 µM (inactive)
same,GI50,[16],> 100 µM (inactive)
same,GI50,[17],72.8 µM (inactive)
same,GI50,[18],> 100 µM (inactive)
same,GI50,[19],79.3 µM (inactive)
same,GI50,[20],> 100 µM (inactive)
same,GI50,[21],> 100 µM (inactive)
same,GI50,[22],70 µM (inactive)
same,GI50,[23],> 100 µM (inactive)
same,GI50,[24],> 100 µM (inactive)
same,GI50,[25],83.4 µM (inactive)
same,GI50,[26],20.5 µM (inactive)
same,GI50,[27],31.9 µM (inactive)
same,GI50,[28],> 100 µM (inactive)
same,GI50,[29],> 100 µM (inactive)
same,GI50,[30],> 100 µM (inactive)
same,GI50,[31],37.1 µM (inactive)
same,GI50,[32],70 µM (inactive)
same,GI50,[33],> 100 µM (inactive)
same,GI50,[34],65.2 µM (inactive)
same,GI50,[35],> 100 µM (inactive)
same,GI50,[36],> 100 µM (inactive)
same,GI50,[37],51.4 µM (inactive)
same,GI50,[38],65.3 µM (inactive)
same,GI50,[39],55 µM (inactive)
same,GI50,[40],61 µM
same,GI50,[41],57.1 µM (inactive)
same,GI50,[42],> 100 µM (inactive)
same,GI50,[43],> 100 µM (inactive)
same,GI50,[44],70.6 µM (inactive)
same,GI50,[45],> 100 µM (inactive)
same,GI50,[46],95.9 µM (inactive)
same,GI50,[47],36.3 µM (inactive)
same,GI50,[48],> 100 µM (inactive)
same,GI50,[49],> 100 µM (inactive)
same,GI50,[50],> 100 µM (inactive)
same,GI50,[51],> 100 µM (inactive)
same,GI50,[52],48.2 µM (inactive)
same,GI50,[53],> 100 µM (inactive)
same,GI50,[54],25.1 µM (inactive)
same,GI50,[55],48.4 µM (inactive)
same,GI50,[56],86.7 µM (inactive)
same,GI50,[57],> 100 µM (inactive)
same,GI50,[58],> 100 µM (inactive)
COc1cc(/C=C/C=C2\CC(C)C/C(=C\C=C\c3ccc(O)c(OC)c3)C2=O)ccc1O (centres undefined),GI50,[2],12.1 µM (inactive)
same,GI50,[3],17.1 µM (inactive)
same,GI50,[4],9.48 µM (inactive)
same,GI50,[5],15 µM (inactive)
same,GI50,[6],20.2 µM (inactive)
same,GI50,[7],23 µM (inactive)
same,GI50,[8],31.7 µM (inactive)
same,GI50,[9],12.2 µM (inactive)
same,GI50,[10],17 µM (inactive)
same,GI50,[11],11.3 µM (inactive)
same,GI50,[12],12.4 µM (inactive)
same,GI50,[13],11.5 µM (inactive)
same,GI50,[59],4.55 µM (inactive)
same,GI50,[14],8.41 µM (inactive)
same,GI50,[15],8.61 µM (inactive)
same,GI50,[16],8.32 µM (inactive)
same,GI50,[17],17.5 µM (inactive)
same,GI50,[18],10.3 µM (inactive)
same,GI50,[20],14.4 µM (inactive)
same,GI50,[21],4.83 µM (inactive)
same,GI50,[22],5.11 µM (inactive)
same,GI50,[23],17.4 µM (inactive)
same,GI50,[24],10.8 µM (inactive)
same,GI50,[25],1.14 µM (inactive)
same,GI50,[26],15.1 µM (inactive)
same,GI50,[27],11.9 µM (inactive)
same,GI50,[28],12.7 µM (inactive)
same,GI50,[29],3.05 µM (inactive)
same,GI50,[30],12.1 µM (inactive)
same,GI50,[31],0.964 µM (active)
same,GI50,[32],0.522 µM (active)
same,GI50,[33],4.98 µM (inactive)
same,GI50,[34],5.06 µM (inactive)
same,GI50,[35],31.3 µM (inactive)
same,GI50,[36],16.7 µM (inactive)
same,GI50,[37],3.93 µM (inactive)
same,GI50,[38],7.23 µM (inactive)
same,GI50,[39],14.8 µM (inactive)
same,GI50,[40],25.1 µM
same,GI50,[41],1.69 µM (inactive)
same,GI50,[42],25.1 µM (inactive)
same,GI50,[43],7.13 µM (inactive)
same,GI50,[44],7.35 µM (inactive)
same,GI50,[45],6.92 µM (inactive)
same,GI50,[46],10.5 µM (inactive)
same,GI50,[47],4.08 µM (inactive)
same,GI50,[48],12.4 µM (inactive)
same,GI50,[49],5.6 µM (inactive)
same,GI50,[50],4.83 µM (inactive)
same,GI50,[52],14.5 µM (inactive)
same,GI50,[53],22.1 µM (inactive)
same,GI50,[54],7.48 µM (inactive)
same,GI50,[55],10.3 µM (inactive)
same,GI50,[56],19.5 µM (inactive)
same,GI50,[57],15.4 µM (inactive)
same,GI50,[58],10 µM (inactive)
